Assay results published in patent publication US7304174B2, “CaSR antagonist” (Japan Tobacco Inc., priority 2003, dated 2007).

Target: T1, human calcium receptor (Homo sapiens, UniProt P41180)
T1 construct: expressed in transfected cells; host or cells: cell strain derived from rat adrenal, co-transformed with luciferase cDNA
T1 sequence (P41180 20-1078): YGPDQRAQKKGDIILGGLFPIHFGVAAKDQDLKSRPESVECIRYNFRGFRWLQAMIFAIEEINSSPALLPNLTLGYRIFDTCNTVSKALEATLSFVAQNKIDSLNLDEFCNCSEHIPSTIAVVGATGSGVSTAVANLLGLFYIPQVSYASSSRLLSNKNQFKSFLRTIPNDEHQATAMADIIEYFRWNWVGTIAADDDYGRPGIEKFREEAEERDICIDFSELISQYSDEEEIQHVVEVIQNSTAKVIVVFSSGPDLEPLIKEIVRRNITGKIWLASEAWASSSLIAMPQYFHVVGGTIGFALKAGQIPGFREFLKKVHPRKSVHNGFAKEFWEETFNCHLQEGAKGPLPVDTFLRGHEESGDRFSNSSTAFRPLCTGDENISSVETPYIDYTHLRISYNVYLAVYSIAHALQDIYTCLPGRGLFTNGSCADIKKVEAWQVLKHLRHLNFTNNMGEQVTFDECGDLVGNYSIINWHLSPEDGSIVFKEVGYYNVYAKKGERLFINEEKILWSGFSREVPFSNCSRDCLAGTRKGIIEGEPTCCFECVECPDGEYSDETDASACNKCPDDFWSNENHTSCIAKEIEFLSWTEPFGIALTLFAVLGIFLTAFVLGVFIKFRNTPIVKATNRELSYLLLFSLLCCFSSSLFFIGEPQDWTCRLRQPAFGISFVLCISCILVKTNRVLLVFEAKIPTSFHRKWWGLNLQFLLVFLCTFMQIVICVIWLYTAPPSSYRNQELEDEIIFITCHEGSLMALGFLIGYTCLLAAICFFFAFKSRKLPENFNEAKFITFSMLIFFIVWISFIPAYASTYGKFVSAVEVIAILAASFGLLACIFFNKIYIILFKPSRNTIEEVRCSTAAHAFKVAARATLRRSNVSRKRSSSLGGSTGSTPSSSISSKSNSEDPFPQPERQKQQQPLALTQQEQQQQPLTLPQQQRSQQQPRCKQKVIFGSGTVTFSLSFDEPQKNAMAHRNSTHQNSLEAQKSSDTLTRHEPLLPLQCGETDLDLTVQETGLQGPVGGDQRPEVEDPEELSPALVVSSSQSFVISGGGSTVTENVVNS
Assay: Evaluation of antagonistic action on calcium receptor using reporter gene (luciferase)
Assay type: cell-based
Conditions: transformed rat adrenal derived cells, 5 mM calcium chloride, culture 4 hrs, luciferase activity; read-out: Reporter gene assay (IC50, concentration showing 50% inhibitory rate)
Summary of the method: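 Rat adrenal-derived cells transfected with luciferase and human calcium receptor cDNA, in F12 with 0.5% dialyzed horse serum and 0.25% dialyzed fetal bovine serum. Luciferase luminescence gave % inhibition vs control and blank; IC50 at 50% inhibition.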

- IC50: 24 nM
SMILES: Cc1ccc(CC(C)(C)NC[C@@H](O)CO[C@H](C)c2ccccc2-c2ccc(C(=O)O)c(C)c2)cc1F [Example 1-1, 2′-[(1R)-[(2R)-3-[[1-(3-Fluoro-4-methylphenyl)-2-methylpropan-2-yl]amino]-2-hydroxypropoxy]ethyl]-3-methylbiphenyl-4-carboxylic acid]
